# Tests used:
# mouse [1] = conditions: Subchronic oral toxicity in rodents, b6c3f1, Feed, dose end: 13 week, group: systemic
# rat [2] = conditions: Subchronic oral toxicity in rodents, fischer, Feed, dose end: 13 week, group: systemic
# rat [3] = conditions: Carcinogenicity, fischer, Oral, Feed, dose end: 105 week, group: systemic
# mouse [4] = conditions: Carcinogenicity, b6c3f1, Oral, Feed, dose end: 105 week, group: systemic
# rat [5] = conditions: Subchronic oral toxicity in rodents, sprague dawley, Gavage/Intubation, dose end: 90 day, group: systemic
# rat [6] = conditions: Prenatal developmental toxicity study, sprague dawley, Oral, Gavage/Intubation, dose end: 17 GD
# rabbit [7] = conditions: Prenatal developmental toxicity study, new zealand white, Oral, Gavage/Intubation, dose end: 18 GD, group: maternal
# rat [8] = conditions: Subchronic oral toxicity in rodents, Sprague Dawley, Feed, dose end: 14 week, group: systemic
# rat [9] = conditions: Developmental neurotoxicity study, sprague dawley, Oral, Gavage/Intubation, dose end: 72 PND, group: cannot be grouped
# rat [10] = conditions: Multigenerational reproductive toxicity study, sprague dawley, Oral, Gavage/Intubation, dose end: 2 generation
# rat [11] = conditions: Combined chronic toxicity/carcinogenicity, Crl: CD (SD) IGS BR, Oral, Feed, dose end: 104 week, group: systemic
# mouse [12] = conditions: Carcinogenicity, cd1, Oral, Feed, dose end: 78 week, group: systemic
# rabbit [13] = conditions: Prenatal developmental toxicity study, other, Oral, Gavage/Intubation, dose end: 27 GD
# rat [14] = conditions: Multigenerational reproductive toxicity study, sprague dawley, Oral, Feed, dose end: 2 generation
# rat [15] = conditions: Combined chronic toxicity/carcinogenicity, sprague dawley, Oral, Feed, dose end: 104 week, group: systemic
# dog = conditions: Chronic toxicity; beagle; Oral; Capsule; dose end: 12 month; group: systemic; systemic / clinical chemistry / alkaline phosphatase (alp/alk) / alkaline phosphatase (alp/alk) + systemic / organ weight / liver / absolute…
# rat [16] = conditions: Subchronic oral toxicity in rodents, sprague dawley, Feed, dose end: 90 day, group: systemic, systemic / in life observation / body weight / body weight gain + systemic / in life observation / food consumption / food consumption + …
# mouse [17] = conditions: Subchronic oral toxicity in rodents, cd1, Feed, dose end: 90 day, group: systemic
# [18] = systemic / in life observation / body weight / body weight + systemic / in life observation / body weight / body weight gain + systemic / …
# [19] = systemic / in life observation / food consumption / food consumption + systemic / organ weight / brain / absolute + systemic / organ weight…
# [20] = systemic / in life observation / body weight / body weight gain
# [21] = systemic / pathology microscopic / blood / leukemia mononuclear + systemic / pathology microscopic / esophagus / squamous cell papilloma + …
# [22] = systemic / pathology microscopic / mammary gland / fibroadenoma + systemic / pathology microscopic / oral mucosa / squamous cell papilloma…
# [23] = systemic / pathology microscopic / blood vessel / [other] + systemic / in life observation / clinical signs / [other] + systemic / in life …
# [24] = systemic / pathology microscopic / stomach / acanthosis + systemic / pathology microscopic / stomach / hyperkeratosis + systemic / clinical …
# [25] = group: developmental, systemic / in life observation / body weight / fetal weight
# [26] = group: maternal, systemic / in life observation / body weight / body weight gain + systemic / in life observation / food consumption / food consumption
# [27] = systemic / in life observation / body weight / body weight + systemic / in life observation / clinical signs / soft stools + systemic / in …
# [28] = systemic / clinical chemistry / aspartate aminotransferase (ast/sgot) / aspartate aminotransferase (ast/sgot) + systemic / clinical …
# [29] = systemic / in life observation / body weight / body weight + systemic / in life observation / body weight / body weight gain + systemic / in…
# [30] = group: offspring, developmental / developmental landmark / eye opening / eye opening + developmental / developmental landmark / pinna unfolding / pinna …
# [31] = group: parental, systemic / in life observation / body weight / body weight + systemic / in life observation / body weight / body weight gain + systemic / in…
# [32] = group: reproductive, reproductive / offspring survival early / litter viability other / total litter loss
# [33] = group: reproductive, reproductive / reproductive performance / gestational length / gestational length + reproductive / reproductive performance / implantations…
# [34] = systemic / in life observation / body weight / body weight + systemic / organ weight / liver / relative to body weight + systemic / …
# [35] = group: maternal, reproductive / reproductive performance / aborted / aborted + reproductive / reproductive performance / premature delivery / premature …
# [36] = group: offspring, systemic / in life observation / body weight / offspring (pup) weight + systemic / in life observation / body weight / offspring (pup) …
# [37] = systemic / pathology microscopic / mammary gland / adenoacanthoma
# [38] = systemic / clinical chemistry / triglycerides / triglycerides
smiles,measurement,setting,value
"OCC(CO)(CBr)CBr [2,2-Bis(bromomethyl)-1,3-propanediol]",LOAEL,mouse [1]; [18],500 mg/kg/day
same,NOAEL,mouse [1]; [18],200 mg/kg/day
same,LEL,mouse [1]; [19],100 mg/kg/day
same,NEL,mouse [1]; [19],< 100 mg/kg/day
same,LOAEL,rat [2]; [18],400 mg/kg/day
same,NOAEL,rat [2]; [18],200 mg/kg/day
same,LEL,rat [2]; [20],100 mg/kg/day
same,NEL,rat [2]; [20],< 100 mg/kg/day
same,LOAEL,rat [3]; [21],> 430 mg/kg/day
same,NOAEL,rat [3]; [21],≥ 430 mg/kg/day
same,LEL,rat [3]; [22],100 mg/kg/day
same,NEL,rat [3]; [22],< 100 mg/kg/day
same,LEL,mouse [4]; [23],35 mg/kg/day
same,NEL,mouse [4]; [23],< 35 mg/kg/day
same,LOAEL,mouse [4]; systemic / pathology microscopic / lung / hyperplasia,80 mg/kg/day
same,NOAEL,mouse [4]; systemic / pathology microscopic / lung / hyperplasia + systemic / pathology microscopic / blood vessel / [other] + systemic / pathology …,40 mg/kg/day
"C1CN(CN2CCOCC2)CCO1 [4,4-Methylenedimorpholine]",LOAEL,rat [5]; systemic / pathology microscopic / stomach / acanthosis + systemic / pathology microscopic / stomach / hyperkeratosis,50 mg/kg/day
same,NEL,rat [5]; [24],15 mg/kg/day
same,NOAEL,rat [5]; [24],15 mg/kg/day
same,LEL,rat [5]; systemic / pathology microscopic / stomach / acanthosis + systemic / pathology microscopic / stomach / hyperkeratosis + systemic / in life …,50 mg/kg/day
CC(C)n1cc2c3c(cccc31)[C@H]1C[C@@H](C(=O)NC3CCCCC3)CN(C)[C@@H]1C2 [Amesergide],LEL,rat [6]; [25],30 mg/kg/day
same,LOAEL,rat [6]; [25],> 30 mg/kg/day
same,NEL,rat [6]; [25],10 mg/kg/day
same,NOAEL,rat [6]; [25],≥ 30 mg/kg/day
same,LEL,rat [6]; [26],30 mg/kg/day
same,LOAEL,rat [6]; [26],> 30 mg/kg/day
same,NEL,rat [6]; [26],10 mg/kg/day
same,NOAEL,rat [6]; [26],≥ 30 mg/kg/day
same,LOAEL,rabbit [7]; [27],> 15 mg/kg/day
same,NEL,rabbit [7]; [27],0.2 mg/kg/day
same,NOAEL,rabbit [7]; [27],≥ 15 mg/kg/day
same,LEL,rabbit [7]; systemic / in life observation / food consumption / food consumption,2 mg/kg/day
O=S(=O)([O-])C(F)(F)C(F)(F)C(F)(F)C(F)(F)C(F)(F)C(F)(F)C(F)(F)C(F)(F)F.[K+] [PFOS-K],NEL,rat [8]; systemic / clinical chemistry / alanine aminotransferase (alt/sgpt) / alanine aminotransferase (alt/sgpt) + systemic / clinical chemistry / …,0.1 mg/kg/day
same,LOAEL,rat [8]; [28],> 1 mg/kg/day
same,NOAEL,rat [8]; [28],≥ 1 mg/kg/day
same,LEL,rat [8]; systemic / pathology microscopic / liver / hypertrophy + systemic / pathology microscopic / liver / vacuolization,0.25 mg/kg/day
same,LOAEL,rat [9]; systemic / in life observation / body weight / body weight,1 mg/kg/day
same,LEL,rat [9]; [29],1 mg/kg/day
same,NEL,rat [9]; [29],0.3 mg/kg/day
same,NOAEL,rat [9]; [29],0.3 mg/kg/day
same,LEL,rat [10]; [30],1.6 mg/kg/day
same,LOAEL,rat [10]; [30],> 3.2 mg/kg/day
same,NEL,rat [10]; [30],0.4 mg/kg/day
same,NOAEL,rat [10]; [30],≥ 3.2 mg/kg/day
same,LOAEL,rat [10]; [31],> 3.2 mg/kg/day
same,NEL,rat [10]; [31],0.1 mg/kg/day
same,NOAEL,rat [10]; [31],≥ 3.2 mg/kg/day
same,LEL,"rat [10]; group: parental, systemic / in life observation / body weight / body weight gain",0.4 mg/kg/day
same,LEL,rat [10]; [32],1.6 mg/kg/day
same,NEL,rat [10]; [32],0.4 mg/kg/day
same,LOAEL,rat [10]; [33],> 3.2 mg/kg/day
same,NOAEL,rat [10]; [33],≥ 3.2 mg/kg/day
same,LOAEL,rat [11]; [34],> 1 mg/kg/day
same,NOAEL,rat [11]; [34],≥ 1 mg/kg/day
same,NEL,rat [11]; systemic / pathology microscopic / liver / adenoma + systemic / in life observation / body weight / body weight + systemic / organ weight / …,0.025 mg/kg/day
same,LEL,rat [11]; systemic / pathology microscopic / liver / degeneration + systemic / pathology microscopic / liver / eosinophilic focus,0.1 mg/kg/day
FC(F)(F)c1ccc(OCCCOc2c(Cl)cc(OCC=C(Cl)Cl)cc2Cl)nc1 [Pyridalyl],LEL,mouse [12]; systemic / hematology / mean corpuscular (cell) volume (mcv) / mean corpuscular (cell) volume (mcv),5.04 mg/kg/day
same,NEL,mouse [12]; systemic / hematology / mean corpuscular (cell) volume (mcv) / mean corpuscular (cell) volume (mcv) + systemic / hematology / lymphocyte / …,1.57 mg/kg/day
same,LOAEL,mouse [12]; [29],99 mg/kg/day
same,NOAEL,mouse [12]; [29],4.78 mg/kg/day
same,LEL,rabbit [13]; [25],150 mg/kg/day
same,LOAEL,rabbit [13]; [25],150 mg/kg/day
same,NEL,rabbit [13]; [25],50 mg/kg/day
same,NOAEL,rabbit [13]; [25],50 mg/kg/day
same,LEL,rabbit [13]; [35],150 mg/kg/day
same,LOAEL,rabbit [13]; [35],150 mg/kg/day
same,NEL,rabbit [13]; [35],50 mg/kg/day
same,NOAEL,rabbit [13]; [35],50 mg/kg/day
same,LOAEL,rat [14]; [36],83.7 mg/kg/day
same,NEL,rat [14]; [36],3.4 mg/kg/day
same,NOAEL,rat [14]; [36],17 mg/kg/day
same,LEL,"rat [14]; group: offspring, systemic / organ weight / thymus / nos",17 mg/kg/day
same,LOAEL,rat [14]; [31],68.7 mg/kg/day
same,NOAEL,rat [14]; [31],13.8 mg/kg/day
same,LEL,"rat [14]; group: parental, systemic / organ weight / testes / absolute",17 mg/kg/day
same,NEL,"rat [14]; group: parental, systemic / organ weight / testes / absolute + systemic / in life observation / body weight / body weight + systemic / in life observation / …",3.4 mg/kg/day
same,LOAEL,rat [15]; [29],17.1 mg/kg/day
same,NOAEL,rat [15]; [18],3.4 mg/kg/day
same,LEL,rat [15]; [37],1.23 mg/kg/day
same,NEL,rat [15]; [37],< 1.23 mg/kg/day
same,LEL,dog,80 mg/kg/day
same,LOAEL,dog,> 80 mg/kg/day
same,NEL,dog,20 mg/kg/day
same,NOAEL,dog,≥ 80 mg/kg/day
same,LEL,rat [16],56 mg/kg/day
same,LOAEL,rat [16],56 mg/kg/day
same,NEL,rat [16],5.56 mg/kg/day
same,NOAEL,rat [16],5.56 mg/kg/day
same,LEL,mouse [17]; [38],9.5 mg/kg/day
same,NEL,mouse [17]; [38],< 9.5 mg/kg/day
same,LOAEL,mouse [17]; [18],378 mg/kg/day
same,NOAEL,mouse [17]; [18],81.7 mg/kg/day

# From EPA's ToxRefDB 2
